In brackets after ≈: the same amount, converted by molar mass. Where two headings read alike, the source gives them in different places. One block for each compound: values may come before it.
Key:
[1] = Pharmacokinetics after single dose oral administration in rats; assay type: in vivo, male Sprague Dawley rats; settings: rat; for half-life: po, 50 mg/kg
Protocol: The pharmacokinetics of ivacaftor (50 mg/kg in organic and 0.25% Methyl Cellulose in water suspension) in male Sprague Dawley rats after single dose oral administration and compound 15 in 0.25% Methyl Cellulose in water suspension at 108 mg-eq/kg (50 mg/kg equivalent to free base) 324 mg-eq/kg (150 mg/kg equivalent to free base) 540 mg-eq/kg (250 mg/kg equivalent to free base) and 756 mg-eq/kg (350 mg/kg equivalent to free base) were investigated. […] The plasma concentration vs. time profile for these experiments are show in FIG. 3.

[2] = Solubility in various buffers; assay type: physicochemical; settings: for pH: pH of solubility sample
Protocol: The solubility of crystalline compound 15 was measured in the various buffers.

[3] = male, Sprague Dawley, plasma, ivacaftor 50 mg/kg, Crystalline Suspension (0.25% Methyl Cellulose in water)

AUC(0-t) [1, 3]: 14600 ng·h/mL
Cmax [1, 3]: 586 ng/mL
half-life ([1]; male, Sprague Dawley, plasma, Organic Solution): 10 h
half-life [1, 3]: 20 h
reduction in AUC, crystalline suspension vs organic solution formulation ([1]; ivacaftor 50 mg/kg): 92%
solubility ([2]; FaSSIF.V2, fassif, thermodynamic from solid, read-out: Solubility): 15 µg/mL (≈ 38.2 µM)
solubility ([2]; FeSSIF.V2, fessif, thermodynamic from solid, read-out: Solubility): 152 µg/mL (≈ 387 µM)
solubility ([2]; FeSSIF.V2, ivacaftor as SDD, read-out: Solubility): 600 µg/mL (≈ 1530 µM)
solubility ([2]; SGF, simulated gastric fluid, thermodynamic from solid, read-out: Solubility): 21 µg/mL (≈ 53.5 µM)
solubility ([2]; Water): 7 µg/mL (≈ 17.8 µM)
pH ([2]; FaSSIF.V2): 6.35
pH ([2]; FeSSIF.V2): 5.91
pH ([2]; SGF): 2.20
pH ([2]; Water): 7.35
pH ([2]; pH 6.8 PO4^3− buffer): 6.71
solubility ([2]; phosphate buffer, aqueous buffer, thermodynamic from solid, pH 6.8 PO4^3− buffer, read-out: Solubility): 8 µg/mL (≈ 20.4 µM)
Compound: CC(C)(C)c1cc(C(C)(C)C)c(NC(=O)c2c[nH]c3ccccc3c2=O)cc1O [ivacaftor, N-(2,4-di-tert-butyl-5-hydroxyphenyl)-4-oxo-1,4-dihydroquinoline-3-carboxamide, reference compound]

Compound: CC(C)OC(=O)[C@H](C)N[P@@](=O)(OCCN1CCOCC1)Oc1cc(NC(=O)c2c[nH]c3ccccc3c2=O)c(C(C)(C)C)cc1C(C)(C)C.O=C(O)CCC(=O)O [Compound 15]
dose dependence of exposure of ivacaftor, in words ([1]; crystalline aqueous suspension, dosed up to 350 mg/kg): dose proportional increase in the exposure of ivacaftor
reduction in AUC with crystalline aqueous suspension, in words ([1]; dosed up to 350 mg/kg): such reduction was not observed
Observation after 24 hrs ([2]; FaSSIF.V2): Suspension
solubility compared with ivacaftor, in words ([2]; FeSSIF and simulated gastric fluid): significant improvement in solubility
Observation after 24 hrs ([2]; FeSSIF.V2): Clear
Observation after 24 hrs ([2]; SGF): Clear
Observation after 24 hrs ([2]; Water): Slightly Hazy
solubility ([2]; aqueous buffer, thermodynamic from solid, pH 6.8 PO4^3− buffer, read-out: Solubility): < 2 µg/mL
Observation after 24 hrs ([2]; pH 6.8 PO4^3− buffer): Suspension
pH ([2]; FaSSIF.V2): 6.09
pH ([2]; FeSSIF.V2): 5.83
pH ([2]; SGF): 1.96
pH ([2]; Water): 3.57
pH ([2]; pH 6.8 PO4^3− buffer): 6.71
solubility ([2]; simulated gastric fluid, thermodynamic from solid, SGF, read-out: Solubility): 1430 µg/mL
solubility ([2]; thermodynamic from solid, FaSSIF.V2, read-out: Solubility): 86 µg/mL
solubility ([2]; thermodynamic from solid, FeSSIF.V2, read-out: Solubility): 1810 µg/mL
solubility ([2]; water, thermodynamic from solid, read-out: Solubility): 787 µg/mL
